Source: patent US12180226B2, “Spirotricycle RIPK1 inhibitors and methods of uses thereof” (Merck Sharp & Dohme LLC, priority 2021, dated 2024)
Counter-ions that a name gives are not always drawn. Like-named read-outs stand apart in the source and are kept apart here.

Target: RIPK1 (recombinant GST-RIPK1 kinase domain, residues 1-327) (Homo sapiens (Human), UniProt Q13546)
Assay: RIPK1-ADP-Glo Enzymatic Assay
Type: biochemical
Conditions: 25 nM GST-RIPK1, 300 μM ATP, assay lower limit ~25 nM
Outline: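 GST-tagged kinase domain (residues 1-327, Sf21-expressed), 25 nM, pre-incubated 30 min with compound at ambient temperature, then reacted 150 min with 300 μM ATP and 3 μM dephosphorylated MBP in HEPES pH 7.3 buffer. ADP measured by ADP-Glo luminescence; EC50 from ten-point titration (top 100000 nM), four-parameter fit.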

[1] = ADP-Glo, read-out: RIPK1 V0 Ec50

Chain of RIPK1 (recombinant GST-RIPK1 kinase domain, residues 1-327) (Q13546 1-327): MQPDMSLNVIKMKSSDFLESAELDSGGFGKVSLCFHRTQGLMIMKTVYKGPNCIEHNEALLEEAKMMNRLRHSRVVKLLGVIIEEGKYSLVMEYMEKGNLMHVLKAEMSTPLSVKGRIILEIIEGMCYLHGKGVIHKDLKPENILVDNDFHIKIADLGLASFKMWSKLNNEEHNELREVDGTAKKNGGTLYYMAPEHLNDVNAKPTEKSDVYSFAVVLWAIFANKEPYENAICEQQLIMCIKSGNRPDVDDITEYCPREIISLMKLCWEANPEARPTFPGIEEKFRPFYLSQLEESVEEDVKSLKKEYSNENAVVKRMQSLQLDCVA

## COC(=O)c1cnc(N2CCC3(CC2)O[C@@H]2CC[C@@H](c4ccccc4)N2C3=O)nc1C [Example 4.189, methyl 4-methyl-2-[(5′S,7a′R)-3′-oxo-5′-phenyltetrahydro-1H,3′H-spiro[piperidine-4,2′-pyrrolo[2,1-b] [1,3]oxazol]-1-yl]pyrimidine-5-carboxylate]
[1]
  EC50: 25.4 nM

## CSc1cc(N2CCC3(CC2)O[C@@H]2CC[C@@H](c4ccccc4)N2C3=O)ncn1 [Example 4.27, (5′S,7a′R)-1-[6-(methylsulfanyl)pyrimidin-4-yl]-5′-phenyltetrahydro-3′H-spiro[piperidine-4,2′-pyrrolo[2,1-b] [1,3]oxazol]-3′-one]
[1]
  EC50: 18 nM

## O=C1N2[C@@H](CC[C@H]2c2cc(F)cc(F)c2)OC12CCN(c1nccc3nccn13)CC2 [Example 4.82, (5′S,7a′R)-5′-(3,5-difluorophenyl)-1-(imidazo[1,2-c]pyrimidin-5-yl)tetrahydro-3′H-spiro[piperidine-4,2′-pyrrolo[2,1-b]oxazol]-3′-one, TFA salt]
[1]
  EC50: 25 nM

## CN(C)c1cccc(C(=O)N2CCC3(CC2)O[C@@H]2CC[C@@H](c4ccccc4)N2C3=O)c1 [Example 6.144, (5′S,7a′R)-1-[3-(dimethylamino)ben-zene-1-carbonyl]-5′-phenyltetrahydro-3′H-spiro[piperidine-4,2′-pyrrolo[2,1-b][1,3]oxazol]-3'-one]
[1]
  EC50: < 25 nM

## N#Cc1cncc([C@@H]2CC[C@H]3SC4(CCN(C(=O)c5ccccc5)CC4)C(=O)N32)c1 [Example 7.4, 5-[(5′S,7a′R)-1-(benzenecarbonyl)-3′-oxotetrahydro-3′H-spiro[piperidine-4,2′-pyrrolo[2,1-b][1,3]thiazol]-5′-yl]pyridine-3-carbonitrile]
[1]
  EC50: 108 nM

## N#Cc1cccc(C(=O)N2CCC3(CC2)O[C@@H]2CC[C@@H](c4ccccc4)N2C3=O)c1 [Example 6.153, 3-[(5′S,7a′R)-3′-oxo-5′-phenyltetrahydro-1H,3′H-spiro[piperi-dine-4,2′-pyrrolo[2,1-b][1,3]oxazole]-1-carbonyl]benzonitrile]
[1]
  EC50: < 25 nM

## O=C(c1ccc(F)cn1)N1CCC2(CC1)O[C@@H]1CC[C@@H](c3cc(F)cc(F)c3)N1C2=O [Example 6.14, (5′S,7a′R)-5′-(3,5-difluorophenyl)-1-(5-fluoropyridine-2-carbonyl)tetrahydro-3′H-spiro[piperidine-4,2′-pyrrolo[2,1-b] [1,3]oxazol]-3′-one]
[1]
  EC50: 30 nM

## Cc1occc1C(=O)N1CCC2(CC1)O[C@@H]1CC[C@@H](c3cc(F)cc(F)c3)N1C2=O [Example 5.37, (5′S,7a′R)-5′-(3,5-difluoro-phenyl)-1-(2-methylfuran-3-carbonyl)tetrahydro-3′H-spiro[piperidine-4,2′-pyrrolo[2,1-b]oxazol]-3′-one]
[1]
  EC50: < 25 nM

## N#Cc1cccc(C(=O)N2CCC3(CC2)O[C@@H]2CC[C@@H](c4cccc(F)c4)N2C3=O)c1 [Example 6.115, 3-[(5′S,7a′R)-5′-(3-fluorophenyl)-3′-oxo-tetrahydro-1H,3′H-spiro[piperidine-4,2′-pyrrolo[2,1-b][1,3]-oxazole]-1-carbonyl] benzonitrile]
[1]
  EC50: < 25 nM

## O=C1N2[C@@H](CC[C@H]2c2ccccc2)OC12CCN(c1nc(-c3ccccn3)cs1)CC2 [Example 11.4, (5′S,7a′R)-5′-phenyl-1-[4-(pyridin-2-yl)-1,3-thiazol-2-yl]tetrahydro-3′H-spiro[piperidine-4,2′-pyrrolo[2,1-b][1,3]oxazol]-3′-one]
[1]
  EC50: 61.1 nM

## COCCN1Cc2nc(N3CCC4(CC3)O[C@@H]3CC[C@@H](c5ccccc5)N3C4=O)ccc2C1=O [Example 4.191, (5′S,7a′R)-1-[6-(2-methoxyethyl)-5-oxo-6,7-dihydro-5H-pyrrolo[3,4-b]pyridin-2-yl]-5′-phenyltetrahydro-3′H-spiro[piperidine-4,2′-pyrrolo[2,1-b] [1,3]oxazol]-3′-one]
[1]
  EC50: 53 nM

## N#Cc1ccc(N2CCC3(CC2)O[C@@H]2CC[C@@H](c4cc(F)cc(F)c4)N2C3=O)cc1Cl [Example 4.20, 2-chloro-4-[(5′S,7a′R)-5′-(3,5-difluorophenyl)-3′-oxotetrahydro-1H,3′H-spiro[piperidine-4,2′-pyrrolo[2,1-b] [1,3]oxazol]-1-yl]benzonitrile]
RIPK1 V0 Ec50, ADP-Glo
  EC50: < 25 nM

## C[C@@]12CC[C@@H](c3ccccc3)N1C(=O)C1(CCN(c3ccnc4c(F)cnn34)CC1)O2 [Example 4.81, (5′S,7a′R)-1-(3-fluoropyrazolo[1,5-a]pyrimidin-7-yl)-7a′-methyl-5′-phenyltetrahydro-3′H-spiro[piperidine-4,2′-pyrrolo[2,1-b] [1,3]oxazol]-3′-one]
[1]
  EC50: 51.2 nM

## O=C1N2[C@@H](CC[C@H]2c2ccccc2)OC12CCN(c1ccc(-c3ncco3)cn1)CC2 [Example 21.16, (5′S,7a′R)-1-[5-(1,3-oxazol-2-yl)pyridin-2-yl]-5′-phenyltetrahydro-3′H-spiro[piperidine-4,2′-pyrrolo[2,1-b][1,3]oxazol]-3′-one]
[1]
  EC50: < 25 nM

## O=C(c1ccccc1)N1CCC2(CC1)C[C@@H]1OC[C@@H](c3ccccc3)N1C2=O [Example 7.3, (3′R,7a′S)-1-(benzenecarbonyl)-3′-phenyltetrahydro-5′H-spiro[piperidine-4,6′-pyrrolo[2,1-b][1,3]oxazol]-5′-one]
[1]
  EC50: 102 nM

## O=C(c1c(Cl)nc2ccccn12)N1CCC2(CC1)O[C@@H]1CC[C@@H](c3cc(F)cc(F)c3)N1C2=O [Example 6.31, (5′S,7a′R)-1-(2-chloroimidazo[1,2-a]pyridine-3-carbonyl)-5′-(3,5-difluorophen-yl)tetrahydro-3′H-spiro[piperidine-4,2′-pyrrolo[2,1-b][1,3]oxazol]-3′-one]
[1]
  EC50: 36.5 nM

## O=C1N2[C@@H](CC[C@H]2c2ccccc2F)OC12CN(CCc1ccccc1)C2 [Example 22.8, (5′S,7a′R)-5′-(2-fluorophenyl)-1-(2-phenylethyl)tetrahydro-3′H-spiro[azetidine-3,2′-pyrrolo[2,1-b][1,3]oxazol]-3′-one]
[1]
  EC50: 348 nM

## O=C1N2[C@@H](CC[C@H]2c2cc(F)cc(F)c2)OC12CCN(c1ccc(Cl)c3ccnn13)CC2 [Example 15.1, (5′S,7a′R)-1-(4-chloropyrazolo[1,5-a]pyridin-7-yl)-5′-(3,5-difluorophenyl)tetrahydro-3′H-spiro[piperidine-4,2′-pyrrolo[2,1-b]oxazol]-3′-one, TFA]
[1]
  EC50: < 25 nM

## COc1cc(C(=O)N2CCC3(CC2)O[C@@H]2CC[C@@H](c4cccc(F)c4)N2C3=O)ccc1F [Example 6.120, (5′S,7a′R)-1-(4-fluoro-3-methoxybenzene-1-carbonyl)-5′-(3-fluoro-phenyl)tetrahydro-3′H-spiro[piperidine-4,2′-pyrrolo[2,1-b][1,3]oxazol]-3′-one]
[1]
  EC50: < 25 nM

## O=C(c1nc2ncccc2s1)N1CCC2(CC1)O[C@@H]1CC[C@@H](c3cc(F)cc(F)c3)N1C2=O [Example 6.26]
[1]
  EC50: 321 nM

## N#Cc1nccc(N2CCC3(CC2)O[C@@H]2CC[C@@H](c4cc(F)cc(F)c4)N2C3=O)n1 [Example 4.5, 4-[(5′S,7a′R)-5′-(3,5-difluorophenyl)-3′-oxotetrahydro-1H,3′H-spiro[piperidine-4,2′-pyrrolo[2,1-b] [1,3]oxazol]-1-yl]pyrimidine-2-carbonitrile]
[1]
  EC50: < 25 nM

## O=C1N2[C@@H](CC[C@H]2c2ccccc2)OC12CCN(c1cc(-n3cccn3)ncn1)CC2 [Example 4.174, (5′S,7a′R)-5′-phenyl-1-[6-(1H-pyrazol-1-yl)pyrimidin-4-yl]tetrahydro-3′H-spiro[piperidine-4,2′-pyrrolo[2,1-b] [1,3]oxazol]-3′-one]
[1]
  EC50: < 25 nM

## O=C(c1c(F)cc(F)cc1F)N1CCC2(CC1)O[C@@H]1CC[C@@H](c3ccccc3)N1C2=O [Example 5.8, (5′S,7a′R)-5′-phenyl-1-(2,4,6-trifluorobenzene-1-carbonyl)tetrahydro-3′H-spiro[piperidine-4,2′-pyrrolo[2,1-b][1,3]oxazol]-3′-one]
[1]
  EC50: < 25 nM

## COc1ccc2oc(N3CCC4(CC3)O[C@@H]3CC[C@@H](c5ccccc5)N3C4=O)nc2c1 [Example 4.160, (5′S,7a′R)-1-(5-methoxy-1,3-benzoxazol-2-yl)-5′-phenyltetrahydro-3′H-spiro[piperidine-4,2′-pyrrolo[2,1-b] [1,3]oxazol]-3′-one]
[1]
  EC50: 76.8 nM

## O=C(c1ccccc1)N1CCC2(CC1)O[C@@H]1[C@@H](F)C[C@@H](c3ccccc3)N1C2=O [Example 6.108, (5′S,7′S,7a′R)-1-(benzenecarbonyl)-7′-fluoro-5′-phenyl-tetrahydro-3′H-spiro [piperidine-4,2′-pyrrolo[2,1-b][1,3]-oxazol]-3′-one]
[1]
  EC50: 43.8 nM

## CCOc1cnc(N2CCC3(CC2)O[C@@H]2CC[C@@H](c4ccccc4)N2C3=O)n2ncnc12 [Example 19.7, (5′S,7a′R)-1-(8-ethoxy[1,2,4]triazolo [1,5-c]pyrimidin-5-yl)-5′-phenyltetrahydro-3′H-spiro[piperidine-4,2′-pyrrolo[2,1-b][l,3]oxazol]-3′-one]
[1]
  EC50: 25 nM

## N#Cc1ccc(N2CCC3(CC2)O[C@@H]2CC[C@@H](c4ccccc4)N2C3=O)n2ncc(Br)c12 [Example 4.183, 3-bromo-7-[(5′S,7a′R)-3′-oxo-5′-phenyltetrahydro-1H,3′H-spiro[piperidine-4,2′-pyrrolo[2,1-b] [1,3]oxazol]-1-yl]pyrazolo[1,5-a] pyridine-4-carbonitrile]
[1]
  EC50: < 25 nM

## COc1cnc(N2CCC3(CC2)O[C@@H]2CC[C@@H](c4ccccc4)N2C3=O)n2ncnc12 [Example 19.6, (5′S,7a′R)-1-(8-methoxy[1,2,4]triazolo [1,5-c]pyrimidin-5-yl)-5′-phenyltetrahydro-3′H-spiro[piperidine-4,2′-pyrrolo[2,1-b][1,3]oxazol]-3′-one]
[1]
  EC50: 45.4 nM
